Test results: article PMC9122944, “Structural insights into the activation of somatostatin receptor 2 by cyclic SST analogues” (Cell Discovery, 2022)
Read-outs that look alike come from different tables or passages of the source.

Key:
SSTR5 = SSTR5 (all five SSTRs); cited from earlier work
SSTR3 = SSTR3 (all five SSTRs); cited from earlier work
SSTR1 = SSTR1 (all five SSTRs); cited from earlier work
SSTR4 = SSTR4 (all five SSTRs); cited from earlier work
SSTR2 = SSTR2 (all five SSTRs); cited from earlier work
SSTR2 F272A = target: T1, SSTR2 F272A (Homo sapiens, UniProt P30874, F272A); test: Intracellular Ca2+ mobilization signaling assay, SSTR2 F272A mutant; type: cell-based; conditions: percentage of wild-type SSTR2 response
T1 construct: Flag; expressed in transfected cells; host or cells: 293 T cells (pcDNA3.1, co-transfected with Gqi9)
T1 sequence (P30874 whole entry F272A): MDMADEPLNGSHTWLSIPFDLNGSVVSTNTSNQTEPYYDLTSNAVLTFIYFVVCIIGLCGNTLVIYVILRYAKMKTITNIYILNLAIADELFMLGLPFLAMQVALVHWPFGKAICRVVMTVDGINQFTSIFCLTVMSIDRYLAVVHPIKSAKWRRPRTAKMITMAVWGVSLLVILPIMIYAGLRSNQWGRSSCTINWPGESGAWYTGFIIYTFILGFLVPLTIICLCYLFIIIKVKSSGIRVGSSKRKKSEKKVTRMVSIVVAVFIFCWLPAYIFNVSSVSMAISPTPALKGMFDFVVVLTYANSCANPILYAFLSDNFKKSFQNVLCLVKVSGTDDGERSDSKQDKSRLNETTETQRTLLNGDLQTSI
Procedure: (§1) SSTR2 (wild-type or mutant) and Gqi9 cloned in pcDNA3.1 vector were co-transfected into 293 T cells at a ratio of 2:1 with Lipo3000. After 24 h, the cells were plated in poly-D-lysine-coated 96-well plates. After cells were washed with calcium buffer (HBSS buffer supplemented with 0.1% BSA, 2.5 mM probenecid, pH 7.4), Fluo4 AM was added and incubated for 50 min in a 37 °C incubator. After washing with calcium buffer, 50 μL calcium buffer was added to each well. Fluorescence intensities were recorded simultaneously from all the wells by a FLIPR. Plates were illuminated at 488 nm and fluorescence emission was recorded at 540 nm. The fluorescence intensity was measured at 1-s intervals for 410 s. This procedure was followed by the addition of 50 μL agonist. Data were normalized to the baseline response of the ligand. Data were analyzed using nonlinear regression in GraphPad Prism software 9.0.

SSTR2 D122A = target: T2, SSTR2 D122A (Homo sapiens, UniProt P30874, D122A); test: Intracellular Ca2+ mobilization signaling assay, SSTR2 D122A mutant; type: cell-based; conditions: read-out: Ca2+ Emax
T2 construct: Flag; expressed in transfected cells; host or cells: 293 T cells (pcDNA3.1, co-transfected with Gqi9)
T2 sequence (P30874 whole entry D122A): as the sequence (P30874 whole entry F272A) above, with D122A, A272F counted along it
Procedure: as §1

SSTR2 F294S = target: T3, SSTR2 F294S (Homo sapiens, UniProt P30874, F294S); test: Intracellular Ca2+ mobilization signaling assay, SSTR2 F294S mutant; type: cell-based; conditions: read-out: Ca2+ Emax
T3 construct: Flag; expressed in transfected cells; host or cells: 293 T cells (pcDNA3.1, co-transfected with Gqi9)
T3 sequence (P30874 whole entry F294S): as the sequence (P30874 whole entry F272A) above, with A272F, F294S counted along it
Procedure: as §1

SSTR2-Q102S = target: T4, SSTR2-Q102S (Homo sapiens, UniProt P30874, Q102S); test: Intracellular Ca2+ mobilization signaling assay, SSTR2 Q102S mutant; type: cell-based; conditions: for Emax: read-out: Ca2+ Emax
T4 construct: Flag; expressed in transfected cells; host or cells: 293 T cells (pcDNA3.1, co-transfected with Gqi9)
T4 sequence (P30874 whole entry Q102S): as the sequence (P30874 whole entry F272A) above, with Q102S, A272F counted along it
Procedure: as §1

[1] = cited from earlier work
SSTR2 Y302A = target: T5, SSTR2 Y302A (Homo sapiens, UniProt P30874, Y302A); test: Intracellular Ca2+ mobilization signaling assay, SSTR2 Y302A mutant; type: cell-based; conditions: read-out: Ca2+ Emax
T5 construct: Flag; expressed in transfected cells; host or cells: 293 T cells (pcDNA3.1, co-transfected with Gqi9)
T5 sequence (P30874 whole entry Y302A): as the sequence (P30874 whole entry F272A) above, with A272F, Y302A counted along it
Procedure: as §1

SSTR2 N276A = target: T6, SSTR2 N276A (Homo sapiens, UniProt P30874, N276A); test: Intracellular Ca2+ mobilization signaling assay, SSTR2 N276A mutant; type: cell-based; conditions: read-out: Ca2+ Emax
T6 construct: Flag; expressed in transfected cells; host or cells: 293 T cells (pcDNA3.1, co-transfected with Gqi9)
T6 sequence (P30874 whole entry N276A): as the sequence (P30874 whole entry F272A) above, with A272F, N276A counted along it
Procedure: as §1

SSTR2 F208A = target: T7, SSTR2 F208A (Homo sapiens, UniProt P30874, F208A); test: Intracellular Ca2+ mobilization signaling assay, SSTR2 F208A mutant; type: cell-based; conditions: read-out: Ca2+ Emax
T7 construct: Flag; expressed in transfected cells; host or cells: 293 T cells (pcDNA3.1, co-transfected with Gqi9)
T7 sequence (P30874 whole entry F208A): as the sequence (P30874 whole entry F272A) above, with F208A, A272F counted along it
Procedure: as §1

SSTR2 (wild-type) = target: T8, SSTR2 (wild-type) (Homo sapiens, UniProt P30874); test: Intracellular Ca2+ mobilization signaling assay, wild-type SSTR2; type: cell-based
T8 construct: Flag; expressed in transfected cells; host or cells: 293 T cells (pcDNA3.1, co-transfected with Gqi9)
T8 sequence (P30874 whole entry): as the sequence (P30874 whole entry F272A) above, with A272F counted along it
Procedure: as §1

SSTR2-Q126A = target: T9, SSTR2-Q126A (Homo sapiens, UniProt P30874, Q126A); test: Intracellular Ca2+ mobilization signaling assay, SSTR2 Q126A mutant; type: cell-based; conditions: read-out: Ca2+ Emax
T9 construct: Flag; expressed in transfected cells; host or cells: 293 T cells (pcDNA3.1, co-transfected with Gqi9)
T9 sequence (P30874 whole entry Q126A): as the sequence (P30874 whole entry F272A) above, with Q126A, A272F counted along it
Procedure: as §1

SSTR2 Q102A = target: T10, SSTR2 Q102A (Homo sapiens, UniProt P30874, Q102A); test: Intracellular Ca2+ mobilization signaling assay, SSTR2 Q102A mutant; type: cell-based; conditions: for Emax: read-out: Ca2+ Emax
T10 construct: Flag; expressed in transfected cells; host or cells: 293 T cells (pcDNA3.1, co-transfected with Gqi9)
T10 sequence (P30874 whole entry Q102A): as the sequence (P30874 whole entry F272A) above, with Q102A, A272F counted along it
Procedure: as §1

SSTR2(1-359)-Largebit = target: T11, SSTR2(1-359)-Largebit (Homo sapiens, UniProt P30874); test: Intracellular Ca2+ mobilization signaling assay, SSTR2(1-359)-Largebit construct; type: cell-based; conditions: maximal response as percentage of wild-type SSTR2 response
T11 construct: SSTR2(1-359)-; Flag; expressed in transfected cells; host or cells: 293 T cells (pcDNA3.1, co-transfected with Gqi9)
T11 sequence (P30874 1-359): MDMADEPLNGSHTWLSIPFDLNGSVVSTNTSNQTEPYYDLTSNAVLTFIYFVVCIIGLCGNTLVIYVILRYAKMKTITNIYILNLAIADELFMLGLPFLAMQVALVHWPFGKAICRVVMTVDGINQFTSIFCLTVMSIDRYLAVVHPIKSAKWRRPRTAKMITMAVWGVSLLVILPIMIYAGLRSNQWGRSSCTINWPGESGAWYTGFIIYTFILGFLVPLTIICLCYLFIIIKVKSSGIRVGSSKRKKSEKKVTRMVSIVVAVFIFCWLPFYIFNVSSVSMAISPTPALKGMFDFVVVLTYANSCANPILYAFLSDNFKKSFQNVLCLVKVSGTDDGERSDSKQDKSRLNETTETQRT
Procedure: as §1

[2] = target: SSTR2-Q102^2.63 substituted with alanine (human) (UniProt P30874)
Sequence of SSTR2-Q102^2.63 substituted with alanine (human) (P30874 whole entry Q102A): as the sequence (P30874 whole entry F272A) above, with Q102A, A272F counted along it

[3] = target: wild-type SSTR2 (pcDNA3.1, functional assays) (human) (UniProt P30874)
Sequence of wild-type SSTR2 (pcDNA3.1, functional assays) (human) (P30874 whole entry): as the sequence (P30874 whole entry F272A) above, with A272F counted along it

SSTR2-Q126A (human) = SSTR2-Q126A (human) (UniProt P30874)
Sequence of SSTR2-Q126A (human) (P30874 whole entry Q126A): as the sequence (P30874 whole entry F272A) above, with Q126A, A272F counted along it

C[C@H](N)C(=O)NCC(=O)N[C@H]1CSSC[C@@H](C(=O)O)NC(=O)[C@H](CO)NC(=O)[C@H]([C@@H](C)O)NC(=O)[C@H](Cc2ccccc2)NC(=O)[C@H]([C@@H](C)O)NC(=O)[C@H](CCCCN)NC(=O)[C@H](Cc2c[nH]c3ccccc23)NC(=O)[C@H](Cc2ccccc2)NC(=O)[C@H](Cc2ccccc2)NC(=O)[C@H](CC(N)=O)NC(=O)[C@H](CCCCN)NC1=O [SST14]
binding affinity (SSTR5): high binding affinity | binding affinity (SSTR3): high binding affinity | binding affinity (SSTR1): high binding affinity | binding affinity (SSTR4): high binding affinity | binding affinity (SSTR2): high binding affinity

CC(C)[C@@H]1NC(=O)[C@H](CCCCN)NC(=O)[C@@H](Cc2c[nH]c3ccccc23)NC(=O)[C@H](Cc2ccc(O)cc2)NC(=O)[C@@H](NC(=O)[C@H](N)Cc2ccc3ccccc3c2)CSSC[C@@H](C(=O)N[C@H](C(N)=O)[C@@H](C)O)NC1=O [Lanreotide]
Emax (SSTR2 F272A): 12.4 ± 1.1% | Emax (SSTR2 D122A): 11.7 ± 4.3% | Emax (SSTR2 F294S): 11.4 ± 0.8% | EC50 (SSTR2-Q102S): 501 nM | Effect of mutation on EC50 (SSTR2-Q102S; SSTR2-Q102S versus wild-type SSTR2): highly attenuated EC50 | Emax (SSTR2-Q102S): 54.8 ± 1.6% | half-life [1]: 1 h | Emax (SSTR2 Y302A): 14 ± 2.2% | Emax (SSTR2 N276A): 13.8 ± 1.6% | Emax (SSTR2 F208A): 27.9 ± 4% | EC50 (SSTR2 (wild-type)): 50.1 nM | Emax (SSTR2-Q126A): 25.2 ± 1.8% | EC50 (SSTR2 Q102A): 398 nM | Emax (SSTR2 Q102A): 56.1 ± 4.2%

C[C@@H](O)[C@@H]1NC(=O)[C@H](CCCCN)NC(=O)[C@@H](Cc2c[nH]c3ccccc23)NC(=O)[C@H](Cc2ccccc2)NC(=O)[C@@H](NC(=O)[C@H](N)Cc2ccccc2)CSSC[C@@H](C(=O)N[C@H](CO)[C@@H](C)O)NC1=O [Octreotide]
Emax (SSTR2 D122A; D122A mutant, percentage of wild-type SSTR2 response): 5.6 ± 0.5% | Emax (SSTR2-Q102S; Q102S mutant, percentage of wild-type SSTR2 response): 91.9 ± 6.5% | half-life [1]: 2 h | Emax (SSTR2 Y302A; Y302A mutant, percentage of wild-type SSTR2 response): 13.7 ± 3.2% | Emax (SSTR2(1-359)-Largebit): 82.6 ± 7.4% | Emax (SSTR2 N276A; N276A mutant, percentage of wild-type SSTR2 response): 22.3 ± 5.4% | Emax (SSTR2 F208A; F208A mutant, percentage of wild-type SSTR2 response): 98.7 ± 6.9% | Emax (SSTR2-Q126A; Q126A mutant, percentage of wild-type SSTR2 response): 83.5 ± 5.9% | Emax (SSTR2 Q102A; Q102A mutant, percentage of wild-type SSTR2 response): 104 ± 12.1%

octreotide (peptide)
EC50 of Ca^2+ mobilization (293 T cells with Gqi9) [2]: 1300 nM | EC50 of Ca^2+ mobilization (293 T cells with Gqi9) [3]: 20 nM | EC50 of Ca^2+ mobilization (293 T cells with Gqi9) (SSTR2-Q126A (human)): 100 nM
